Legend:
[1] = target: T1, KRAS^G12C (recombinant KRAS mutant G12C, C51S, C80L, C118S) (Homo sapiens, UniProt P01116, C118S/C51S/C80L/G12C); assay: Covalent binding assay by mass spectrometry (intact mass, % covalent adduct); conditions: 25 µM protein, 25 µM compound, room temperature, 2 h
T1 construct: made in house
Procedure: One of the most synthetically accessible compounds, 1,6‐naphthyridin‐5(6H)‐one (1), was prepared (Table 1; Scheme S1). Structurally close to 1, isoquinolin‐1(2H)‐one 2 derivatives were also considered for the exploration of structure‐activity relationships (SAR). To measure the proportion of inhibitor reacting with Cys12 of the KRAS^G12C mutant, the bound/unbound protein ratio was quantified by mass spectrometry (MS). Then, the inhibition potency of these compounds towards KRAS^G12C was evaluated in biochemical assays measuring the activation of GDP‐bound KRAS^G12C or KRAS^WT by SOS1.19 […]
(§1) 3.4 Covalent binding assay by mass spectrometry
The percentage of covalent adduct formation at KRAS G12C was determined by intact mass determination. To this end, 25 µM recombinant KRAS mutant (G12C , C51S, C80L, C118S) was incubated with 25 µM compound (1% v/v DMSO final concentration) in 50 mM Tris, pH 8.0, 50 mM NaCl at room temperature for 2 h. Reaction mixture (20 µL) was acidified by addi tion of 4% v/v TFA (4 µL). LC-MS analysis was performed using a Waters SYNAPT G2 -S quadrupole time -of-flight mass spectrometer connected to a Waters nanoA CQUITY UPLC system. Samples were loaded onto a 2.1 × 5 mm MassPrep C4 guard column (Waters) and desalted with a short gradient (3 min) of increasing concentration of acetonitrile at a flow rate of 100 µL/min. Spectra were analyzed by using MassLynx v4.1 software and deconvoluted with the MaxEnt1 algorithm. Percent conversion was determined by the ratio of signal intensities of […] and KRASG12C + inhibitor. […]

active RAS = assay: Cellular assay for RAS activation (G-LISA); type: cell-based; conditions: 24 h treatment; read-out: Cellular IC50 (inhibition of active RAS formation)
Procedure: SOS1CAT. All steps of the assay were performed at 20 °C. A volume of 2.5 µL of the KRASG12C working solution was added to all wells of the test plate using a Multidrop dispenser (Thermo LabSystems). After 180 min, 2.5 µL of the SOS1CAT working solution was added to all wells, except for the inhibitor control solution wells. After 30 min incubation, HTRF was measured.
In the KRASWT activation by SOS1cat assay, human SOS1CAT mediated loading of GST-KRASWT– GDP was quantified with a fluorescent GTP analogue. The assay was performed as described above for the KRASG12C activation. GST-KRASG12C was replaced by GST-KRASWT, used at a final […]
as §1
The percentage of covalent adduct formation at KRAS G12C was determined by intact mass determination. To this end, 25 µM recombinant KRAS mutant (G12C , C51S, C80L, C118S) was incubated with 25 µM compound (1% v/v DMSO final concentration) in 50 mM Tris, pH 8.0, 50 mM NaCl at room temperature for 2 h. Reaction mixture (20 µL) was acidified by addi tion of 4% v/v TFA (4 µL). […] Spectra were analyzed by using MassLynx v4.1 software and deconvoluted with the MaxEnt1 algorithm. Percent conversion was determined by the ratio of signal intensities of […] and KRASG12C + inhibitor. […]
Using the G-LISA Kit (Cytoskeleton BK131, RAS Activation Assay), 50000 cells are seeded in a 96 well plate for 72 h at 37 °C (10% FBS, DMEM/Ham's F-12, 2 mM L-Glutamine). […] Finally, the content of active R AS is measured by detecting the absorbance at 490 nm. […]
The percentage of covalent adduct formation at KRASG12C was determined for compounds 1, 2 and 13 by intact mass determination. […]
Liquid chromatography-mass spectrometry (LC-MS) analysis was performed using a Waters SYNAPT G2-S quadrupole time-of-flight mass spectrometer connected to a Waters nanoAcquity UPLC system. […] Spectra were analyzed by using MassLynx v4.1 software and deconvoluted with the MaxEnt1 algorithm. Percent of conversion was determined by the ratio of signal intensiti es of apo-KRAS and KRAS + inhibitor.

Row | SMILES | MS assay [% binding] (KRAS^G12C bound fraction) [1] [%] | IC50 (active RAS) [µM]
1 | C=CC(=O)N1CCC(c2cc3ncc(-c4c(O)cccc4F)cc3c(=O)[nH]2)C1 (stereo not drawn) [Compound 1, 3-(2-Fluoro-6-hydroxyphenyl)-7-[1-(prop-2-enoyl)pyrrolidin-3-yl]-1,6-naphthyridin-5(6H)-one] | 80 | > 30
2 | C=CC(=O)N1CCC(c2cc3ccc(-c4c(O)cccc4F)cc3c(=O)[nH]2)C1 (stereo not drawn) [Compound 2, 7-(2-Fluoro-6-hydroxyphenyl)-3-[1-(prop-2-enoyl)pyrrolidin-3-yl]isoquinolin-1(2H)-one] | 35 | > 30
3 | C=CC(=O)N1CCC(c2cc3cnc(-c4c(O)cccc4F)cc3c(=O)[nH]2)C1 (stereo not drawn) [Compound 13, 7-(2-Fluoro-6-hydroxyphenyl)-3-[1-(prop-2-enoyl)pyrrolidin-3-yl]-2,6-naphthyridin-1(2H)-one] | 73 | 22

Source: publication PMC7318243, “Computationally Empowered Workflow Identifies Novel Covalent Allosteric Binders for KRAS^G12C” (Chemmedchem, 2020)
